{"source": "ChEMBL document CHEMBL1141745", "about": "“New Sesquiterpene Lactones from Illicium floridanum” (J Nat Prod, 1998)", "experiment": "Neurotoxicity against ip dosed mouse", "type": "toxicity, organism-based", "details": "in vivo"}
{"compound": "C[C@@H]1C[C@@H](O)[C@@]2(O)[C@@]13C[C@@H](OC(=O)[C@H]3O)[C@](C)(O)[C@@]21COC1=O", "note": "[ANISATIN]", "values": [{"measurement": "LD50", "result": 1, "unit": "mg/kg"}]}
